In PMC7382964 (Biochemical pharmacology, 2020):

Columns and labels:
[1] = system: A3AR; details: Gao et al.; cited from earlier work
[2] = system: A3AR; details: Gao et al.; cited from earlier work; remark: listed apart in the source
[3] = system: A3AR; details: cited from earlier work
[4] = biological target: T1, cannabinoid receptor CB1 (Homo sapiens, UniProt P21554); assay: βarr2 recruitment assay with CB1 cannabinoid receptor; assay type: cell-based; details: 5 μM
[5] = biological target: T1, cannabinoid receptor CB1; assay: miniGαi coupling assay with CB1 cannabinoid receptor; assay type: cell-based; details: 5 μM
[6] = biological target: hA3AR (Homo sapiens, UniProt P0DMS8); assay: βarr2 recruitment bioassay; assay type: cell-based
[7] = biological target: T2, hA3AR (Homo sapiens, UniProt P0DMS8); assay: miniGαi recruitment bioassay; assay type: cell-based
T2 sequence (P0DMS8 1-318): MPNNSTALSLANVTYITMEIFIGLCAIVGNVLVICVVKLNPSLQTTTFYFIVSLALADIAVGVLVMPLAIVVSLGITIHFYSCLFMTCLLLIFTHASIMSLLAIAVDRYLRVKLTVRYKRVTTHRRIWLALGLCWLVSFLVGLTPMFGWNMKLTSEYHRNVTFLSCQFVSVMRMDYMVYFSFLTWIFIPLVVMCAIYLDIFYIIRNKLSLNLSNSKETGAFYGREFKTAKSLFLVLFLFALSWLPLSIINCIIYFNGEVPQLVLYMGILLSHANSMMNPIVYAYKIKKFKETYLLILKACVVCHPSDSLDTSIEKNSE

[8] = addition of 2-chloro substituent
[9] = 90 min read-out, AUC, normalized to NECA

T1 sequence (P21554 whole entry): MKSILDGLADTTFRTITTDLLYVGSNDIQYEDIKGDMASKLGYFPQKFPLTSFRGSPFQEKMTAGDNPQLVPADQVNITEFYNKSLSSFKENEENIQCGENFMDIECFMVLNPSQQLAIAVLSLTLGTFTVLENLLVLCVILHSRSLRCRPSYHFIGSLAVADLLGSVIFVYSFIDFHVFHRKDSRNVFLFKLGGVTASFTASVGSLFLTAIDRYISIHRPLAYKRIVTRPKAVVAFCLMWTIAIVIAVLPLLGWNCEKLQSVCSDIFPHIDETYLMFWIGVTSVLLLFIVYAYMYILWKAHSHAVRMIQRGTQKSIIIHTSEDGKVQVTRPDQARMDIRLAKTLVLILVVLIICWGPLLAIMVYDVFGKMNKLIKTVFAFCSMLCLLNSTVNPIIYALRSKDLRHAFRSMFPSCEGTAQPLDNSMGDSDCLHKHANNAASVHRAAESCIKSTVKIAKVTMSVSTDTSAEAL

CNC(=O)[C@H]1O[C@@H](n2cnc3c(NCc4cccc(I)c4)nc(Cl)nc32)[C@H](O)[C@@H]1O [2-Cl-IB-MECA, 2-chloro-N^6-(3-iodobenzyl)-5′-N-methylcar-boxamidoadenosine]
agonist class in calcium mobilization assay [1]: partial agonist
agonist class in PathHunter assay for βarr2 recruitment [2]: full agonist

OC[C@H]1O[C@@H](n2cnc3c(N[C@H]4C[C@@H]4c4ccccc4)ncnc32)[C@H](O)[C@@H]1O [compound 1, N^6-((1S,2R)-2-phenyl-1-cyclopropyl)-adenosine]
signal in βarr2 recruitment assay with CB1-LgBiT [4]: unable to generate a signal
signal in miniGαi coupling assay with CB1-LgBiT [5]: unable to generate a signal

OCC1OC(n2cnc3c(NC4CC4c4ccccc4)ncnc32)C(O)C1O (stereo not shown) [compound 2]
fold reduction in potency versus compound 1, βarr2 ([6]; inversion to 1R,2S orientation): 40 fold
fold reduction in potency versus compound 1, miniGαi ([7]; inversion to 1R,2S orientation): ~100 fold

OCC1OC(n2cnc3c(NC4CCCCC4c4ccccc4)ncnc32)C(O)C1O (stereo not shown) [compound 4]
receptor activation signal, βarr2 bioassay [6]: no clear activation signal
receptor activation signal, miniGαi bioassay [7]: no clear activation signal

CC(Cc1ccccc1)Nc1nc(Cl)nc2c1ncn2C1OC(CO)C(O)C1O (stereo not shown) [compound 9]
fold increased potency versus compound 8, βarr2 [6, 8]: approximately five
fold increased potency versus compound 8, miniGαi [7, 8]: approximately five

CC(C)Nc1ncnc2c1ncn2[C@@H]1O[C@H](CO)[C@H](O)C1O (stereo partly shown) [compound 10]
EC50 ([6]; read-out: EC50, βarr2 recruitment, 90 min read-out, AUC, normalized to NECA): 669 nM
EC50 ([7]; read-out: EC50, miniGαi recruitment, 90 min read-out, AUC, normalized to NECA): 433 nM

CC(C)C(Nc1ncnc2c1ncn2C1OC(CO)C(O)C1O)C(C)C (stereo not shown) [compound 12]
receptor activation signal, βarr2 bioassay [6]: could not be measured
receptor activation signal, miniGαi bioassay [7]: could not be measured

OCC1OC(n2cnc3c(NC(C4CC4)C4CC4)ncnc32)C(O)C1O (stereo not shown) [compound 13]
receptor activation signal, βarr2 bioassay [6]: same observation
receptor activation signal, miniGαi bioassay [7]: same observation

OC[C@H]1O[C@@H](n2cnc3c(NCc4ccco4)ncnc32)[C@H](O)[C@@H]1O [compound 14]
EC50, βarr2 recruitment [6, 9]: micromolar range
EC50, miniGαi recruitment [7, 9]: micromolar range

OCC1OC(n2cnc3c(NCc4cccs4)ncnc32)C(O)C1O (stereo not shown) [compound 15]
EC50, βarr2 recruitment [6, 9]: micromolar range
EC50, miniGαi recruitment [7, 9]: micromolar range

OCC1OC(n2cnc3c(NC4CCc5ccccc54)ncnc32)C(O)C1O (stereo not shown) [compound 17]
EC50, βarr2 recruitment [6, 9]: micromolar range
EC50, miniGαi recruitment [7, 9]: micromolar range

OC[C@H]1O[C@@H](n2cnc3c(NCC(c4ccccc4)c4ccccc4)ncnc32)[C@H](O)[C@@H]1O [compound 19]
functional class in the cAMP pathway ([3]; Tchilibon et al.): antagonist
